# Experimental data as given in US9695155B2, “Herbicidal substituted pyrimidinyloxy benzene compounds” (E. I. DU PONT DE NEMOURS AND COMPANY, priority 2013, dated 2017).
# Legend:
# morningglory [1] = assay: Test A preemergence; format: in vivo, Ipomoea spp.
# Method in brief: (§1)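 Pre- and postemergence greenhouse screen. Soil: loam + sand. Spray carrier: solvent mixture, non-phytotoxic, with surfactant. Post timing at 1–2 leaves, height 2–10 cm. Readout: visual injury on a 0–100 scale roughly 10 days after application, untreated plants as reference.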
# giant foxtail = assay: Test A preemergence; format: in vivo, Setaria faberii; conditions: Setaria faberi, pre-emergence, 240 h
# Method in brief: as §1
# wheat, winter = assay: Test C preemergence; format: in vivo, Triticum aestivum; conditions: Triticum aestivum, pre-emergence
# Method in brief: (§2)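 Whole-plant greenhouse test with surfactant-containing solvent formulation, applied preemergence to sown loam–sand pots or postemergence to 2–18 cm plants. Scored by eye 13 to 15 days on, 0–100 scale.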
# Italian ryegrass = assay: Test C postemergence; format: in vivo, Lolium multiflorum; conditions: Lolium multiflorum, post-emergence
# Method in brief: as §2
# large (Lg) crabgrass = assay: Test A postemergence; format: in vivo, Digitaria sanguinalis; conditions: Digitaria sanguinalis, post-emergence, 240 h
# Method in brief: as §1
# velvetleaf [2] = assay: Test A postemergence; format: in vivo, Abutilon theophrasti; conditions: Abutilon theophrasti, post-emergence, 240 h
# Method in brief: as §1
# barnyardgrass [3] = assay: Test C preemergence; format: in vivo, Echinochloa crus-galli; conditions: Echinochloa crus-galli, pre-emergence
# Method in brief: as §2
# pigweed [4] = assay: Test C postemergence; format: in vivo, Amaranthus retroflexus; conditions: Amaranthus retroflexus, post-emergence
# Method in brief: as §2
# barnyardgrass [5] = assay: Test B flooded paddy test; format: in vivo, Echinochloa crus-galli; conditions: Echinochloa crus-galli; Flood, 250 g ai/ha; 0 to 100 scale where 0 is no effect and 100 is complete control; read-out: Plant response rating, Barnyardgrass
# Method in brief: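 Flooded to 3 cm at the 2-leaf stage, pots received compound through the paddy water and were kept at that depth under greenhouse conditions. After 13–15 days, effect was rated by eye relative to controls, 0 = none and 100 = complete control.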
# lambsquarters = assay: Test C preemergence; format: in vivo, Chenopodium album; conditions: Chenopodium album, pre-emergence
# Method in brief: as §2
# morningglory [6] = assay: Test C postemergence; format: in vivo, Ipomoea coccinea; conditions: Ipomoea, post-emergence
# Method in brief: as §2
# kochia = assay: Test C postemergence; format: in vivo, Kochia scoparia; conditions: Bassia scoparia, post-emergence
# Method in brief: as §2
# wheat = assay: Test A postemergence; format: in vivo, Triticum aestivum; conditions: Triticum aestivum, post-emergence, 240 h
# Method in brief: as §1
# velvetleaf [7] = assay: Test A preemergence; format: in vivo, Abutilon theophrasti
# Method in brief: as §1
# pigweed [8] = assay: Test A postemergence; format: in vivo, Amaranthus retroflexus; conditions: Amaranthus retroflexus, post-emergence
# Method in brief: as §1
# corn = assay: Test A preemergence; format: in vivo, Zea mays; conditions: Zea mays, pre-emergence, 240 h
# Method in brief: as §1
# [9] = 125 g ai/ha, 0 to 100 scale where 0 is no effect and 100 is complete control
structure (smiles),measurement,setting,value
"N#Cc1cccc(Oc2ncc(Br)cn2)c1-n1cc(C(F)(F)F)cn1 [Compound 59, 3-[(5-bromo-2-pyrimidinyl)oxy]-2-[4-(trifluoromethyl)-1H-pyrazol-1-yl]benzonitrile]","Plant response rating, Morningglory",morningglory [1]; [9],80
same,pest or weed control at 500 g/ha,"morningglory [1]; Ipomoea, pre-emergence, 240 h, 500 g ai/ha, 0 to 100 scale, 0 no effect, 100 complete control, approx. 10 days, read-out: Morningglory plant response rating",100%
same,pest or weed control at 125 g/ha,"giant foxtail; 125 g ai/ha, 0 to 100 scale where 0 is no effect and 100 is complete control, read-out: Plant response rating, Foxtail, Giant",100%
same,pest or weed control at 500 g/ha,"giant foxtail; 500 g ai/ha, 0 to 100 scale, 0 no effect, 100 complete control, approx. 10 days, read-out: Foxtail, Giant plant response rating",100%
same,plant injury at 62 g/ha,"wheat, winter; 62 g ai/ha, preemergence, scale 0 (no effect) to 100 (complete control), read-out: Wheat plant response rating",50%
same,plant injury at 125 g/ha,"wheat, winter; 125 g ai/ha, preemergence, scale 0 (no effect) to 100 (complete control), read-out: Wheat plant response rating",85%
same,plant injury at 250 g/ha,"wheat, winter; 250 g ai/ha, preemergence, scale 0 (no effect) to 100 (complete control), read-out: Wheat plant response rating",90%
same,plant injury at 31 g/ha,"wheat, winter; Preemergence, 31 g ai/ha, scale 0 to 100, 0 no effect, 100 complete control, read-out: Plant response rating, Wheat",0%
same,pest or weed control at 125 g/ha,"Italian ryegrass; 125 g ai/ha, postemergence, read-out: Plant response rating (0 to 100), Ryegrass, Italian",10%
same,pest or weed control at 250 g/ha,"Italian ryegrass; 250 g ai/ha, postemergence, read-out: Plant response rating (0 to 100), Ryegrass, Italian",30%
same,pest or weed control at 31 g/ha,"Italian ryegrass; Postemergence, 31 g ai/ha, scale 0 to 100 (0 no effect, 100 complete control), 13 to 15 days, read-out: Plant response rating, Ryegrass, Italian",5%
same,pest or weed control at 62 g/ha,"Italian ryegrass; Postemergence, 62 g ai/ha, scale 0 to 100 (0 no effect, 100 complete control), read-out: Plant response rating, Ryegrass, Italian",10%
same,pest or weed control at 125 g/ha,"large (Lg) crabgrass; 125 g ai/ha, 0 to 100 scale where 0 is no effect and 100 is complete control, read-out: Plant response rating, Crabgrass, Large",100%
same,pest or weed control at 500 g/ha,"large (Lg) crabgrass; 500 g ai/ha, 0 to 100 scale, 0 no effect, 100 complete control, read-out: Plant response rating Crabgrass, Large",100%
same,pest or weed control at 125 g/ha,"velvetleaf [2]; 125 g ai/ha, 0 to 100 scale where 0 is no effect and 100 is complete control, read-out: Plant response rating, Velvetleaf",100%
same,pest or weed control at 500 g/ha,"velvetleaf [2]; 500 g ai/ha, 0 to 100 scale, 0 no effect, 100 complete control, read-out: Plant response rating Velvetleaf",100%
same,pest or weed control at 62 g/ha,"barnyardgrass [3]; 62 g ai/ha, preemergence, scale 0 (no effect) to 100 (complete control), read-out: Barnyardgrass plant response rating",100%
same,pest or weed control at 125 g/ha,"barnyardgrass [3]; 125 g ai/ha, preemergence, scale 0 (no effect) to 100 (complete control), read-out: Barnyardgrass plant response rating",100%
same,pest or weed control at 250 g/ha,"barnyardgrass [3]; 250 g ai/ha, preemergence, scale 0 (no effect) to 100 (complete control), read-out: Barnyardgrass plant response rating",100%
same,pest or weed control at 31 g/ha,"barnyardgrass [3]; Preemergence, 31 g ai/ha, scale 0 to 100, 0 no effect, 100 complete control, read-out: Plant response rating, Barnyardgrass",80%
same,pest or weed control at 125 g/ha,"pigweed [4]; 125 g ai/ha, postemergence, read-out: Plant response rating (0 to 100), Pigweed",95%
same,pest or weed control at 250 g/ha,"pigweed [4]; 250 g ai/ha, postemergence, read-out: Plant response rating (0 to 100), Pigweed",98%
same,pest or weed control at 31 g/ha,"pigweed [4]; Postemergence, 31 g ai/ha, scale 0 to 100 (0 no effect, 100 complete control), 13 to 15 days, read-out: Plant response rating, Pigweed",80%
same,pest or weed control at 62 g/ha,"pigweed [4]; Postemergence, 62 g ai/ha, scale 0 to 100 (0 no effect, 100 complete control), read-out: Plant response rating, Pigweed",90%
same,pest or weed control at 250 g/ha,barnyardgrass [5],40%
same,pest or weed control at 62 g/ha,"lambsquarters; 62 g ai/ha, preemergence, scale 0 (no effect) to 100 (complete control), read-out: Lambsquarters plant response rating",100%
same,pest or weed control at 125 g/ha,"lambsquarters; 125 g ai/ha, preemergence, scale 0 (no effect) to 100 (complete control), read-out: Lambsquarters plant response rating",100%
same,pest or weed control at 250 g/ha,"lambsquarters; 250 g ai/ha, preemergence, scale 0 (no effect) to 100 (complete control), read-out: Lambsquarters plant response rating",100%
same,pest or weed control at 31 g/ha,"lambsquarters; Preemergence, 31 g ai/ha, scale 0 to 100, 0 no effect, 100 complete control, read-out: Plant response rating, Lambsquarters",100%
same,pest or weed control at 125 g/ha,"morningglory [6]; 125 g ai/ha, postemergence, read-out: Plant response rating (0 to 100), Morningglory",95%
same,pest or weed control at 250 g/ha,"morningglory [6]; 250 g ai/ha, postemergence, read-out: Plant response rating (0 to 100), Morningglory",95%
same,pest or weed control at 31 g/ha,"morningglory [6]; Postemergence, 31 g ai/ha, scale 0 to 100 (0 no effect, 100 complete control), 13 to 15 days, read-out: Plant response rating, Morningglory",80%
same,pest or weed control at 62 g/ha,"morningglory [6]; Postemergence, 62 g ai/ha, scale 0 to 100 (0 no effect, 100 complete control), read-out: Plant response rating, Morningglory",85%
same,pest or weed control at 125 g/ha,"kochia; 125 g ai/ha, postemergence, read-out: Plant response rating (0 to 100), Kochia",100%
same,pest or weed control at 250 g/ha,"kochia; 250 g ai/ha, postemergence, read-out: Plant response rating (0 to 100), Kochia",100%
same,pest or weed control at 31 g/ha,"kochia; Postemergence, 31 g ai/ha, scale 0 to 100 (0 no effect, 100 complete control), 13 to 15 days, read-out: Plant response rating, Kochia",95%
same,pest or weed control at 62 g/ha,"kochia; Postemergence, 62 g ai/ha, scale 0 to 100 (0 no effect, 100 complete control), read-out: Plant response rating, Kochia",100%
same,plant injury at 125 g/ha,"wheat; 125 g ai/ha, 0 to 100 scale where 0 is no effect and 100 is complete control, read-out: Plant response rating, Wheat",70%
same,plant injury at 500 g/ha,"wheat; 500 g ai/ha, 0 to 100 scale, 0 no effect, 100 complete control, read-out: Plant response rating Wheat",100%
same,"Plant response rating, Velvetleaf",velvetleaf [7]; [9],100
same,pest or weed control at 500 g/ha,"velvetleaf [7]; Abutilon theophrasti, pre-emergence, 240 h, 500 g ai/ha, 0 to 100 scale, 0 no effect, 100 complete control, approx. 10 days, read-out: Velvetleaf plant response rating",100%
same,pest or weed control at 125 g/ha,"pigweed [8]; 125 g ai/ha, 0 to 100 scale where 0 is no effect and 100 is complete control, read-out: Plant response rating, Pigweed",100%
same,pest or weed control at 500 g/ha,"pigweed [8]; 240 h, 500 g ai/ha, 0 to 100 scale, 0 no effect, 100 complete control, read-out: Plant response rating Pigweed",100%
same,"Corn plant response rating (crop injury, 0 = no effect, 100 = complete kill) at 125 g/ha",corn; [9],20%
same,plant injury at 500 g/ha,"corn; 500 g ai/ha, 0 to 100 scale, 0 no effect, 100 complete control, approx. 10 days, read-out: Corn plant response rating",30%
